Reference: US8445539B2, “Alpha-aminoamide derivatives useful in the treatment of psychiatric disorders” (priority 2007, dated 2013)

Tested on: MK-801-induced PPI disruption
Assay: Prepulse inhibition of startle with disruption by MK-801
Type: in vivo, Wistar rats
Settings: pretreatment vehicle, treatment MK-801 0.2 mg/kg i.p., mean ± SEM
Description: Prepulse inhibition (PPI) is a cross-species phenomenon (i.e., it is present in mammals ranging from mice to humans), yet it is relatively impaired among schizophrenic patients. The PPI procedure is used to assess the subject's ability to “gate” or filter environmental information. In the acoustic (startle model) of sensorimotor gating a weak acoustic stimulus (prepulse) decrease the reflexive flinching response (startle) produced by a second, more intense, stimulus (the pulse). Drugs like dizocilpine (MK-801) or amphetamine disrupt PPI and represent an animal model of schizophrenia; antipsychotic drugs are able to prevent PPI deficit. The test is quite useful to screen potential antipsychotic drugs.
Methods: Male Wistar rats, weighing 200-300 g were used. Apparatus: All startle and PPI testing has been performed in four startle chambers. Each ventilated illuminated and sound proof chamber contained a clear non-restrictive Plexiglas cylinder resting on a platform. A high-frequency loudspeaker inside the chamber produced both a continuous background noise of 70 dB and the various acoustic stimuli. Vibrations of the Plexiglas cylinder caused by the whole-body startle response of the animal were transduced into analogue signals by a piezoelectric unit attached to the platform. These signals were then digitized and stored by a computer. Sixty-five readings were taken at 1-ms intervals starting at stimulus onset, and the average amplitude was used to determine the acoustic startle response. Sound levels is given in dB.
Prepulse inhibition session: After 5 min of habituation (background white noise, 70 dB), two types of acoustic stimuli were used: acoustic stimulus alone (120 dB, 40 ms) or the stimulus proceeded by a prepulse (76, 79, 82 dB, 40 ms) applied 100 ms before the stimulus. During each experimental session 20 trials of each type were presented with interstimulus interval of 20 s. The amplitudes were averaged for each individual animal, separately for both types of trials (stimulus alone or stimulus preceded by the prepulse). The degree of prepulse inhibition was shown as a percentage score (% PPI) calculated as […] a difference between the amplitude of the pulse-alone (P) and the amplitude of the prepulse+pulse trials (PP+P), divided by the amplitude of the pulse-alone trials and multiplied by 100. […] Substances and treatments: MK-801 0.2 mg/kg was dissolved in saline and was given i.p. In each experiment, […] were assigned to receive either compounds of the disclosure or vehicle and were tested in the PPI session using a between-subjects design. The order of drug treatment for the first experiment was test-compound, followed by MK-801; for the second experiment rats received test-compound and then amphetamine. Statistical Analysis: Multiple ANOVA was conducted followed by Dunnett's post hoc test.

SMILES: C[C@]12N[C@H](Cc3ccccc31)c1ccccc12 [MK-801, reference compound]
- Percentage of inhibition (% PPI): 9.07 ± 0.81 %
- Acoustic tone alone (startle amplitude): 40.50 ± 1.96
- Startle amplitude on prepulse + pulse trials (startle amplitude): 37.00 ± 2.11
